In general, melting point refers to the temperature, or range, at which the solid turns liquid.

The source of these data is patent US10052320B2, “Substituted quinoxalines as FGFR kinase inhibitors” (ASTEX THERAPEUTICS LIMITED, priority 2011, dated 2018).

The target in series [1] is Ba/F3-FGFR4-transfected cells (Homo sapiens, UniProt P22455). As to the kind of experiment: Ba/F3-FGFR4 cellular proliferation assay, Alamar Blue. It is filed as cell-based. The procedure, abridged:
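Alamar Blue fluorescence (540/590 nm, 4 h development) measured growth of FGFR4-transfected Ba/F3 cells after 24 h compound treatment at 37° C. Cells were seeded at 20000/well in RPMI-1640, 10% FBS.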
In general terms: The colour change of resazurin is a common sign of viable cells or microbes.

The target in series [2] is Ba/F3-FGFR3-transfected cells (Homo sapiens, UniProt P22607). Nature of the series: Ba/F3-FGFR3 (minus IL3) cellular proliferation assay, Alamar Blue. It is filed as cell-based. The conditions noted are these: for BAF3-FGFR 3 (MIN IL3) 96 well pIC50: minus IL3, 96 well; for BAF3-FGFR 3 (MIN IL3) 384 well pIC50: minus IL3, 384 well. The method in brief:
(§1)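 With or without 10 ng/ml murine IL3, transfected Ba/F3-FGFR3 cells in serum-containing RPMI-1640 receive compound for 24 h at 37 °C. Growth is then gauged by resazurin conversion over 4 h, read as relative fluorescence units.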

Series [3] concerns the target Ba/F3-FGFR1-transfected cells (Homo sapiens, UniProt P11362). Nature of the series: Ba/F3-FGFR1 (minus IL3) cellular proliferation assay, Alamar Blue. The class given is cell-based. The conditions noted are these: for BAF3-FGFR 1 (MIN IL3) 96 well pIC50: minus IL3, 96 well; for BAF3-FGFR 1 (MIN IL3) 384 well pIC50: minus IL3, 384 well. The method in brief: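 Proliferation is estimated from Alamar Blue fluorescence after cells grow for one day with test compound in 10% FBS medium at 37 °C, with 4 h dye incubation before reading.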

Series [4] relates to Ba/F3-FGFR3-transfected cells in the presence of 10 ng/ml murine IL3. As to the kind of experiment: Ba/F3-FGFR3 (plus IL3) cellular proliferation counterscreen, Alamar Blue. The conditions noted are these: Mus musculus. The class given is cell-based. The method in brief:
as §1
Background: Counterscreens check selectivity or assay interference.

In series [5] the test system is Ba/F3-Flt3-transfected cells in the presence of 10 ng/ml murine IL3. As to the kind of experiment: Ba/F3-Flt3 (plus IL3) cellular proliferation counterscreen, Alamar Blue. The class given is cell-based. The conditions noted are these: Mus musculus; plus 10 ng/ml murine IL3; read-out: BAF3-FLT3 (PLUS IL3) 96 well pIC50 (converted).
The target in another series is FGFR1 (h) (Homo sapiens, UniProt P11362). As to the kind of experiment: FGFR1 (enzymatic assay), TR-FRET. The class given is biochemical. The conditions noted are these: read-out: FGFR 1 pIC50 (converted). As to the method:
In a final reaction volume of 30 μL, FGFR1 (h) (25 ng/ml) was incubated with 50 mM HEPES pH 7.5, 6 mM MnCl2, 1 mM DTT, 0.1 mM Na3VO4, 0.01% Triton-X-100, 500 nM Btn-Flt3 and 5 μM ATP in the presence of compound (1% DMSO final). […] Time-Resolved Fluorescence Resonance Energy Transfer (TR-FRET) signal (ex340 nm. Em 620 nm, em 655 nm) was measured afterwards and results are expressed in RFU (Relative Fluorescence Units).
On the technique in general: Time-resolved FRET reads energy transfer from a long-lived donor to a nearby acceptor.

Setting [6] is: plus 10 ng/ml murine IL3, 384 well, read-out: BAF3-FGFR 3 (PLUS IL3) 384 well pIC50 (converted).
Where [7] appears, read: plus IL3, 96 well, read-out: BAF3-FGFR 3 (PLUS IL3) 96 well pIC50 (converted).

Several values for one entry are separate records, joined by “and”; a condition that tells them apart may be missing. Equal values may be shown once. Read-outs that look alike come from different tables or passages of the source.

Chain of Ba/F3-FGFR1-transfected cells (P11362 whole entry, change not shown): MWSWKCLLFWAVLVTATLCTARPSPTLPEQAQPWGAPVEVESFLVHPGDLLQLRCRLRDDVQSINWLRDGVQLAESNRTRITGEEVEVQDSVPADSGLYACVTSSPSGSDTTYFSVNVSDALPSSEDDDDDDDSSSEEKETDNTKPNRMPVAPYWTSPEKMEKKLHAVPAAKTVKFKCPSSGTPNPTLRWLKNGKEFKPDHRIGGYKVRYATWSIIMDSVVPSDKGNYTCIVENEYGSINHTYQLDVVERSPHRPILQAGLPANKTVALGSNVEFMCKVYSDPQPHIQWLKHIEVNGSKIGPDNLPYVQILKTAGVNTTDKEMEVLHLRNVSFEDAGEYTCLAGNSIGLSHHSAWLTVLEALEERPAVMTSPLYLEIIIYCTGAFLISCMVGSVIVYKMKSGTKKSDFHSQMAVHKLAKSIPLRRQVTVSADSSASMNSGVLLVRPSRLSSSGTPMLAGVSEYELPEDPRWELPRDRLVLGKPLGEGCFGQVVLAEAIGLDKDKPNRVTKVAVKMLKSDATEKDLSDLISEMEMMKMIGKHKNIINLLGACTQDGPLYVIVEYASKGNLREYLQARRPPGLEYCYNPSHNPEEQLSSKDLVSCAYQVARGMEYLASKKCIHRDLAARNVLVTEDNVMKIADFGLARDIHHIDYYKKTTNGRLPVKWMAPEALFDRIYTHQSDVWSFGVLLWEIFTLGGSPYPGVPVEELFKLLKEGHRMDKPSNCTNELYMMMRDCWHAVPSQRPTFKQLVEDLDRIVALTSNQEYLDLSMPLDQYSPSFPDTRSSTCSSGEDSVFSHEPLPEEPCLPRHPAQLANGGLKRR
Chain of Ba/F3-FGFR4-transfected cells (P22455 whole entry, change not shown): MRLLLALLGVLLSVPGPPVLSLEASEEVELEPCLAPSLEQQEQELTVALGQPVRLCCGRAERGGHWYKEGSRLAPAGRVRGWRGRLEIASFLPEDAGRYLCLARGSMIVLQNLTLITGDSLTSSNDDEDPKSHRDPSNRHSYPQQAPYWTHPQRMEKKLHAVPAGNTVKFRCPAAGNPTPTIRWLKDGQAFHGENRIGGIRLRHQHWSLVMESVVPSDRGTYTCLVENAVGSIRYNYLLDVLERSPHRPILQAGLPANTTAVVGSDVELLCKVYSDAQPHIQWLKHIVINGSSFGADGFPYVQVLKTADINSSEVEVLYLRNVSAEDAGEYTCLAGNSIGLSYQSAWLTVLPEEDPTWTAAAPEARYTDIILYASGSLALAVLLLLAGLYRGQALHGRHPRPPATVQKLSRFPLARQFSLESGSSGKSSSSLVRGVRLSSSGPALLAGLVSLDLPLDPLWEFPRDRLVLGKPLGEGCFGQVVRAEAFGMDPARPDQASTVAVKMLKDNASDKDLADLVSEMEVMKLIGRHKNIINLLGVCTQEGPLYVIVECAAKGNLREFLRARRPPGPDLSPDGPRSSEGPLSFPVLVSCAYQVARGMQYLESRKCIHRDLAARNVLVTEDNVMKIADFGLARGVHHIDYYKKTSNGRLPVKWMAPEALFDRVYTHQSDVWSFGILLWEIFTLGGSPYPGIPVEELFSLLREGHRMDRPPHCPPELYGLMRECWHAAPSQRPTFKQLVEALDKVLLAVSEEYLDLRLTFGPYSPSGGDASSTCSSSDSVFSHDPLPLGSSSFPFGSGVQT
Chain of FGFR1 (h) (P11362 22-822): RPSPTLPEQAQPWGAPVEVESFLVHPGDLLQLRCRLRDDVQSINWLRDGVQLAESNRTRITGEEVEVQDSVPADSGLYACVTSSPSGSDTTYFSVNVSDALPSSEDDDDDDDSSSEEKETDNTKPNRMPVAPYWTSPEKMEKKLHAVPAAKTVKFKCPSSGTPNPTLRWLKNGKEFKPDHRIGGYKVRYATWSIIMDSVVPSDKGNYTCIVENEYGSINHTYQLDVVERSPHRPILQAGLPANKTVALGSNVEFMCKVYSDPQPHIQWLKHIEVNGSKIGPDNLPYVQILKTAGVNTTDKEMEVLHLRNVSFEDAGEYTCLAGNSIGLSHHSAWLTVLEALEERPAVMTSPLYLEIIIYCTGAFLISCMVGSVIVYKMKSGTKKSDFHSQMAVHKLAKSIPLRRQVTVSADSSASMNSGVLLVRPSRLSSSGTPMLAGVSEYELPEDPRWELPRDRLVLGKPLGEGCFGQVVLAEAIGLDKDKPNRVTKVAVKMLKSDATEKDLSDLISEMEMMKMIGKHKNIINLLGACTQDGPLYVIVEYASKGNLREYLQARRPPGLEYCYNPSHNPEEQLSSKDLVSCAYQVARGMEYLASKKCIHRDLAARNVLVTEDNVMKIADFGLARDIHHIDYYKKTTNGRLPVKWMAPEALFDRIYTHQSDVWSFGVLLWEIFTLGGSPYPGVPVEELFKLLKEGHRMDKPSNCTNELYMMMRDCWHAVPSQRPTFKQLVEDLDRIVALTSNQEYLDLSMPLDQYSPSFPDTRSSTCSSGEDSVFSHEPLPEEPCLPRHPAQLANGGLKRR
Chain of Ba/F3-FGFR3-transfected cells (P22607 whole entry, change not shown): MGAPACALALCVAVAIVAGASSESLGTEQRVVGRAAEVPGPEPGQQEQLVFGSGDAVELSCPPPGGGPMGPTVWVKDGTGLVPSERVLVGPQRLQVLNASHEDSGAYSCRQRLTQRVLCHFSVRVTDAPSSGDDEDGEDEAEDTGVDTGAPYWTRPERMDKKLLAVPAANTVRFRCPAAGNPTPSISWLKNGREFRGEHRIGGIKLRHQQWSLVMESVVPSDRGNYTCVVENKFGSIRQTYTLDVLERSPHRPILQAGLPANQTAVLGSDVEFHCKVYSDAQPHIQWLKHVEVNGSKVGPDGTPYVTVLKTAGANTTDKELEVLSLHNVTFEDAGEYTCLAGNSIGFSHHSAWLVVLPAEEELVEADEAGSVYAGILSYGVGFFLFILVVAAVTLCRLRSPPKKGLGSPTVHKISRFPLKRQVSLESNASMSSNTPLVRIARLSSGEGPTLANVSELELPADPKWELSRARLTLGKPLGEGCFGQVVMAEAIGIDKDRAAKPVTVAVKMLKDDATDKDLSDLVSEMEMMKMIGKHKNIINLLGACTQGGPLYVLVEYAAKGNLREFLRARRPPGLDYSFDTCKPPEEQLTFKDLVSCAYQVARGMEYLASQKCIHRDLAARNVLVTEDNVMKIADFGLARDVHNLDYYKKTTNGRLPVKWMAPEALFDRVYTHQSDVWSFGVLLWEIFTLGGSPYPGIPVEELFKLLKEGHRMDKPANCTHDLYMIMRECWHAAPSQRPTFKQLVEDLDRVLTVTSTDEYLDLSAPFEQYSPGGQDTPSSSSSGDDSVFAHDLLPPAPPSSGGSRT

In turn, `COc1cc(OC)cc(N(CC2CC2)c2ccc3ncc(-n4cncn4)nc3c2)c1` [Compound 50] showed a melting point of 168 °C. The “BAF3-FGFR4 pIC50” value in series [1] is recorded as below 5. Besides, in series [2], the “BAF3-FGFR 3 (MIN IL3) 96 well pIC50” value is given as below 5 and the “BAF3-FGFR 3 (MIN IL3) 384 well pIC50” value is below 5. Further, in series [3], the “BAF3-FGFR 1 (MIN IL3) 96 well pIC50” value is given as below 5 and the “BAF3-FGFR 1 (MIN IL3) 384 well pIC50” value is below 5. In addition, the IC50 in series [4] (setting [6]) was above 10 µM. The IC50 in series [4] (setting [7]) is above 10 µM. For the same compound, in series [5], the IC50 is above 10 µM. The IC50 on FGFR1 (h) is 0.759 µM.

For `COc1cc(OC)cc(N(CC2CC2)c2ccc3ncc(Nc4cnn(C)c4)nc3c2)c1` [Compound 61], the melting point stood at 160 °C. Also, in series [4] (setting [6]), the IC50 is above 10 µM. In addition, the IC50 in series [4] (setting [7]) was 3.98 µM. Moreover, the IC50 in series [5] is 6.76 µM.

On to `COc1cc(OC)cc(N(CC2CC2)c2ccc3ncc(-c4cn(CCO)nn4)nc3c2)c1` [Compound 40], for which the melting point was 178 °C and 177 °C. In addition, the “BAF3-FGFR4 pIC50” value in series [1] is given as around 5.0. Besides, in series [2], the “BAF3-FGFR 3 (MIN IL3) 96 well pIC50” value was determined as 5.04 and the “BAF3-FGFR 3 (MIN IL3) 384 well pIC50” value is given as around 5.15. In addition, in series [3], the “BAF3-FGFR 1 (MIN IL3) 96 well pIC50” value came out at 5.4 and the “BAF3-FGFR 1 (MIN IL3) 384 well pIC50” value came out at 5.24. The IC50 in series [4] (setting [6]) is above 10 µM. In series [4] (setting [7]), the IC50 was above 10 µM. In addition, in series [5], the IC50 is above 10 µM. The IC50 on FGFR1 (h) was 0.0776 µM.

Regarding `COc1cc(OC)cc(N(CC2CC2)c2ccc3ncc(-c4cnn(C)n4)nc3c2)c1` [Compound 70], the melting point is 129 °C. Moreover, in series [4] (setting [6]), the IC50 was above 10 µM. Besides, in series [4] (setting [7]), the IC50 was above 10 µM. Besides, the IC50 in series [5] is above 10 µM.

Turning to `COc1cc(OC)cc(N(CC2CC2)c2ccc3ncc(-n4cnc(C)c4)nc3c2)c1` [Compound 30], the melting point was determined as 113 °C. Also, in series [1], the “BAF3-FGFR4 pIC50” value is reported as below 5.35. In series [2], the “BAF3-FGFR 3 (MIN IL3) 96 well pIC50” value was found to be 5.94 and the “BAF3-FGFR 3 (MIN IL3) 384 well pIC50” value is 5.51. In series [3], the “BAF3-FGFR 1 (MIN IL3) 96 well pIC50” value came out at 5.03 and the “BAF3-FGFR 1 (MIN IL3) 384 well pIC50” value was found to be 5.32. The IC50 in series [4] (setting [6]) was above 10 µM. Moreover, in series [4] (setting [7]), the IC50 was above 10 µM. In addition, the IC50 in series [5] is above 10 µM. For the same compound, at FGFR1 (h), the IC50 is 0.0513 µM.

For `COc1cc(OC)cc(N(CC2CC2)c2ccc3ncc(-c4ccnn4C)nc3c2)c1` [Compound 18], the melting point was 132 °C. Moreover, in series [4] (setting [6]), the IC50 is above 10 µM. In addition, the IC50 in series [4] (setting [7]) is above 10 µM. Further, the IC50 in series [5] was above 10 µM.

In the case of `COc1cc(OC)cc(N(CC2CC2)c2ccc3ncc(Nc4nccs4)nc3c2)c1` [Compound 98], the melting point is 213 °C. In series [1], the “BAF3-FGFR4 pIC50” value is reported as below 5. In series [2], the “BAF3-FGFR 3 (MIN IL3) 96 well pIC50” value is recorded as below 5 and the “BAF3-FGFR 3 (MIN IL3) 384 well pIC50” value is below 5. The “BAF3-FGFR 1 (MIN IL3) 384 well pIC50” value in series [3] was below 5. The IC50 in series [5] was above 10 µM. For the same compound, the IC50 on FGFR1 (h) was 0.437 µM.

`COc1cc(OC)cc(N(CC2CC2)c2ccc3ncc(C#Cc4ccncc4)nc3c2)c1` [Compound 23] had a melting point of 60 °C. Moreover, in series [1], the “BAF3-FGFR4 pIC50” value is on record as below 5. Also, in series [2], the “BAF3-FGFR 3 (MIN IL3) 96 well pIC50” value is on record as 5.66 and the “BAF3-FGFR 3 (MIN IL3) 384 well pIC50” value amounted to 5.1. Further, in series [3], the “BAF3-FGFR 1 (MIN IL3) 96 well pIC50” value is 5.41 and the “BAF3-FGFR 1 (MIN IL3) 384 well pIC50” value came to 5.09. Also, in series [5], the IC50 is 5.62 µM. Further, the IC50 on FGFR1 (h) is 0.501 µM.

Compound `COc1cc(OC)cc(N(CC2CC2)c2ccc3ncc(-c4cnco4)nc3c2)c1` [Compound 55] yielded a melting point of 152 °C. Also, the “BAF3-FGFR4 pIC50” value in series [1] is on record as below 5. For the same compound, in series [2], the “BAF3-FGFR 3 (MIN IL3) 96 well pIC50” value amounted to 5.65 and the “BAF3-FGFR 3 (MIN IL3) 384 well pIC50” value is around 5.25. In series [3], the “BAF3-FGFR 1 (MIN IL3) 96 well pIC50” value is 5.37 and the “BAF3-FGFR 1 (MIN IL3) 384 well pIC50” value is below 5. Besides, the IC50 in series [5] is above 10 µM. In addition, on FGFR1 (h), the IC50 is 0.0372 µM.

With `COc1cc(OC)cc(N(CC2CC2)c2ccc3ncc(-c4ccn(CCO)c4)nc3c2)c1` [Compound 56], the melting point worked out at 143 °C. Also, in series [4] (setting [6]), the IC50 was above 10 µM. Besides, the IC50 in series [4] (setting [7]) was above 10 µM. Further, the IC50 in series [5] is above 10 µM.

For the compound `COc1cc(OC)cc(N(CC2CC2)c2ccc3ncc(-c4cn(C)nn4)nc3c2)c1` [Compound 71], the melting point is 141 °C. Moreover, the IC50 in series [4] (setting [6]) is above 10 µM. Besides, in series [4] (setting [7]), the IC50 is above 10 µM. Also, the IC50 in series [5] is above 10 µM.

With `COc1cc(OC)cc(N(CC2CC2)c2ccc3ncc(-c4nccs4)nc3c2)c1` [Compound 97], the melting point is 148 °C. The “BAF3-FGFR4 pIC50” value in series [1] is on record as below 5. In series [2], the “BAF3-FGFR 3 (MIN IL3) 96 well pIC50” value is given as below 5 and the “BAF3-FGFR 3 (MIN IL3) 384 well pIC50” value was below 5. For the same compound, in series [3], the “BAF3-FGFR 1 (MIN IL3) 384 well pIC50” value is below 5. The IC50 in series [5] was above 10 µM. In addition, on FGFR1 (h), the IC50 is 0.575 µM.

Consider `COc1cc(OC)cc(N(CC2CC2)c2ccc3ncc(-c4cn[nH]n4)nc3c2)c1` [Compound 69], for which the melting point is 173 °C and 172 °C. Besides, the “BAF3-FGFR4 pIC50” value in series [1] is reported as below 5. Further, in series [2], the “BAF3-FGFR 3 (MIN IL3) 96 well pIC50” value was below 5 and the “BAF3-FGFR 3 (MIN IL3) 384 well pIC50” value is recorded as below 5. Moreover, in series [3], the “BAF3-FGFR 1 (MIN IL3) 96 well pIC50” value amounted to 5.22 and the “BAF3-FGFR 1 (MIN IL3) 384 well pIC50” value is on record as 5.01. The IC50 in series [5] was above 10 µM. The IC50 at FGFR1 (h) is 0.0794 µM.

`COc1cc(OC)cc(N(CC2CC2)c2ccc3ncc(-c4nnnn4C)nc3c2)c1` [Compound 83] registered a melting point of 168 °C. The “BAF3-FGFR4 pIC50” value in series [1] is below 5. Moreover, in series [2], the “BAF3-FGFR 3 (MIN IL3) 96 well pIC50” value is on record as below 5 and the “BAF3-FGFR 3 (MIN IL3) 384 well pIC50” value is below 5. Besides, in series [3], the “BAF3-FGFR 1 (MIN IL3) 96 well pIC50” value is below 5 and the “BAF3-FGFR 1 (MIN IL3) 384 well pIC50” value is below 5. In series [4] (setting [6]), the IC50 is above 10 µM. The IC50 in series [4] (setting [7]) was above 10 µM. Moreover, the IC50 in series [5] was above 10 µM. In addition, at FGFR1 (h), the IC50 was above 1 µM.
